According to PMC12111564, “Extended Family of Thiophosphoryl-Appended Pd(II) Pincer Complexes with a Deprotonated Amide Core: Synthesis and Biological Evaluation” (International Journal of Molecular Sciences, 2025):
Where two headings read alike, the source gives them in different places.

Assays:
[1] = system: doxorubicin-resistant subline of chronic myelogenous leukemia cells (K562/iS9); experiment: MTT cytotoxicity assay, K562/iS9; assay type: cell-based, human; conditions: 48 h exposure, read-out: IC50 ± SD, K562/iS9
Procedure: (§1) The cytotoxic activity of the complexes obtained was screened against several human solid and hematopoietic cancer cell lines using the conventional MTT assay. To evaluate their selectivity for cancerous over non-cancerous cells, analogous tests were performed with pseudonormal human embryonic kidney (HEK293) and breast epithelial (HBL100) cell lines.
(§2) The cytotoxicity of the compounds obtained was investigated on human colorectal carcinoma (HCT116), breast cancer (MCF7), prostate adenocarcinoma (PC3), glioblastoma (U251), ovarian adenocarcinoma (Scov3), chronic myelogenous leukemia (K562 and K562/iS9), multiple plasmacytoma (AMO1), and acute lymphoblastic leukemia (H9) cell lines, as well as human embryonic kidney (HEK293) and mammary epithelial (HBL100 and HBL100/Dox) cells used as non-cancerous cell lineages. All the cell lines were obtained from American Type Culture Collection (ATCC). The tested compounds were initially dissolved in DMSO. Cisplatin was obtained from a commercial source (as an infusion concentrate in natural saline solution). The experiments were performed using the conventional MTT assay (ICN Biomedicals, Eschwege, Germany) according to the previously published procedure.

[2] = system: Bacillus subtillis (VKM B-501); experiment: Agar well diffusion, B. subtillis; assay type: cell-based; conditions: 10 µL per well, 28 °C, 24 h
Procedure: (§3) The microbial strains Bacillus subtillis (VKM B-501), Micrococcus luteus (VKM Ac-2230), and Groenewaldozyma auringiensis (VKM Y-2927) were used for antimicrobial activity tests. All strains were obtained from the All-Russian Collection of Microorganisms (VKM) at the Skryabin Institute of Biochemistry and Physiology of Microorganisms, Pushchino Scientific Center of Biological Research. B. subtilis and M. luteus were grown on the following medium (g/L): aminopeptide 60 mL; tryptone 5.0 g; yeast extract 1.0 g; soybean extract 30 mL; bacto-agar 15.0 g; final pH 7.2. G. auringiensis was grown on malt extract medium containing the following medium (g/L): malt extract 12.75; dextrin 2.75; glycerol 2.35; gelatin peptone 0.78; bacto-agar 15; final pH 5.4. The antimicrobial activity of ligand 17 and its cyclopalladated derivative 18 (both in the racemic form) was studied by the agar well diffusion method. The overnight grown culture of each strain (100 µL) was applied to the surface of the solid medium, then spread on agar plates using a glass spreader, and left for 30 min. The wells were cut in the culture plates using a sterilized glass tube (4 mm in diameter), and each compound sample was dissolved in DMSO to a final concentration of 0.25 or 2.5 mM (10 µL) and was placed in each well. After this, the plates were kept at room temperature for 3 h to improve the diffusion of the compounds and incubated at 28 °C for 24 h. DMSO (15%) was used as a negative control, while kanamycin (50 mg/mL) was used as a positive control. The antimicrobial activity was determined by measuring the inhibition zone around each well as a mean of three replicates.

[3] = system: Micrococcus luteus (VKM Ac-2230); experiment: Agar well diffusion, M. luteus; assay type: cell-based; conditions: 10 µL per well, 28 °C, 24 h
Procedure: as §3

[4] = system: multiple plasmacytoma (AMO1); experiment: MTT cytotoxicity assay, AMO1; assay type: cell-based, human; conditions: 48 h exposure, read-out: IC50 ± SD, AMO1
Procedure: as §1, §2

[5] = system: doxorubicin-resistant mammary epithelial cells HBL100/Dox; experiment: MTT cytotoxicity assay, HBL100/Dox; assay type: cell-based, human; conditions: 48 h exposure, doxorubicin-resistant clone, read-out: IC50 ± SD, HBL100/Dox
Procedure: as §1, §2

[6] = system: chronic myelogenous leukemia (K562); experiment: MTT cytotoxicity assay, K562; assay type: cell-based, human; conditions: 48 h exposure, read-out: IC50 ± SD, K562
Procedure: as §1, §2

[7] = system: K562/iS9 cells; experiment: Apoptosis induction, Annexin V-FITC/PI flow cytometry, K562/iS9; assay type: cell-based, human; conditions: 10 μM, 20 h
Source text: (§4) To our delight, in general the biological profile of complex (R)-18 appeared to be close to that of the previously reported phenyl-substituted counterpart (compare entries 10 and 1 in Table 1 and entries 6 and 1 in Table 2), with a lower activity on HCT116 and PC3 cells but remarkably higher selectivity towards K562 cells over non-cancerous HEK293 cells. […] The total percentage of early (lower right quadrant) and late (upper right quadrant) apoptotic cells for (R)-18 on K562/iS9 subline was even higher than in the parental cells. These findings prompted us to gain further insight into the bioactivity of the Pd(II) pincer complexes of thiophosphoryl-functionalized amides from the viewpoint of their potential to overcome drug resistance.
(§5) The apoptosis-inducing ability of enantiomerically pure and racemic complexes 18 was studied on K562 and K562/iS9 cells that were cultured in a medium containing 10 μM of the tested palladocycle for 20 h. The experiments were performed following the published procedure. The analysis was carried out on a FACScan flow cytometer (Becton Dickinson, Franklin Lakes, NJ, USA) using the CellQuest software (version 3.3).

[8] = system: human embryonic kidney (HEK293); experiment: MTT cytotoxicity assay, HEK293; assay type: cell-based; conditions: 48 h exposure, non-cancerous cells, read-out: IC50 ± SD, HEK293
Procedure: as §1, §2

[9] = system: acute lymphoblastic leukemia (H9); experiment: MTT cytotoxicity assay, H9; assay type: cell-based, human; conditions: 48 h exposure, read-out: IC50 ± SD, H9
Procedure: as §1
as §2, with “Cisplatin was obtained from a commercial source (as an infusion concentrate in natural saline solution).” left out

[10] = system: Groenewaldozyma auringiensis (VKM Y-2927); experiment: Agar well diffusion, G. auringiensis; assay type: cell-based; conditions: 10 µL per well, 28 °C, 24 h
Procedure: as §3

[11] = system: mammary epithelial cells HBL100; experiment: MTT cytotoxicity assay, HBL100; assay type: cell-based, human; conditions: 48 h exposure, non-cancerous cells, read-out: IC50 ± SD, HBL100
Procedure: as §1, §2

[12] = system: K562 cells; experiment: Apoptosis induction, Annexin V-FITC/PI flow cytometry, K562; assay type: cell-based, human; conditions: 10 μM, 20 h
Source text: as §4, §5

[13] = system: human colorectal carcinoma (HCT116); experiment: MTT cytotoxicity assay, HCT116; assay type: cell-based; conditions: 48 h exposure, read-out: IC50 ± SD, HCT116
Procedure: as §1, §2

[14] = system: prostate adenocarcinoma (PC3); experiment: MTT cytotoxicity assay, PC3; assay type: cell-based, human; conditions: 48 h exposure, read-out: IC50 ± SD, PC3
Procedure: as §1, §2

[15] = system: breast cancer (MCF7); experiment: MTT cytotoxicity assay, MCF7; assay type: cell-based, human; conditions: 48 h exposure, read-out: IC50 ± SD, MCF7
Procedure: as §1, §2

[16] = system: mammary epithelial cells HBL100; parameters: method as in PMID 37818804; conditions: MTT; read-out: IC50 ± SD, HBL100; cited from earlier work
[17] = system: multiple plasmacytoma (AMO1); parameters: method as in PMID 37818804; conditions: MTT; read-out: IC50 ± SD, AMO1; cited from earlier work
[18] = system: human colorectal carcinoma (HCT116); parameters: method as in PMID 37818804; conditions: MTT; read-out: IC50 ± SD, HCT116; cited from earlier work
[19] = system: human embryonic kidney (HEK293); parameters: method as in PMID 37818804; conditions: MTT; read-out: IC50 ± SD, HEK293; cited from earlier work
[20] = system: chronic myelogenous leukemia (K562); parameters: method as in PMID 37818804; conditions: MTT; read-out: IC50 ± SD, K562; cited from earlier work
[21] = system: acute lymphoblastic leukemia (H9); parameters: method as in PMID 37818804; conditions: MTT; read-out: IC50 ± SD, H9; cited from earlier work
[22] = system: ovarian adenocarcinoma (Scov3); experiment: MTT cytotoxicity assay, Scov3; assay type: cell-based, human
Procedure: as §1, §2

[23] = system: prostate adenocarcinoma (PC3); parameters: method as in PMID 37818804; conditions: MTT; read-out: IC50 ± SD, PC3; cited from earlier work
[24] = system: breast cancer (MCF7); parameters: method as in PMID 37818804; conditions: MTT; read-out: IC50 ± SD, MCF7; cited from earlier work
[25] = system: doxorubicin-resistant subline of chronic myelogenous leukemia cells (K562/iS9); conditions: MTT; read-out: IC50 ± SD, K562/iS9; cited from earlier work
[26] = system: glioblastoma (U251); experiment: MTT cytotoxicity assay, U251; assay type: cell-based, human
Procedure: as §1, §2

[27] = system: doxorubicin-resistant mammary epithelial cells HBL100/Dox; conditions: MTT; read-out: IC50 ± SD, HBL100/Dox; cited from earlier work
[28] = system: hematopoietic cancer cells; experiment: MTT cytotoxicity assay, hematopoietic cancer cells; assay type: cell-based, human; conditions: inactive at concentrations up to
Procedure: as §1, §2

[29] = system: solid cancer cells; experiment: MTT cytotoxicity assay, solid cancer cells; assay type: cell-based, human; conditions: inactive at concentrations up to
Procedure: as §1, §2

[30] = biological target: T1, P-glycoprotein (P-gp) (Homo sapiens, UniProt P08183); experiment: P-gp functional activity, Rh123 efflux from K562/iS9 cells; assay type: cell-based; conditions: 20 μM of complex, 37 °C, 30 min, flow cytometry
T1 construct: We assessed the efflux of the fluorescent dye Rhodamine 123 (Rh123) from cells with a high P-gp content—K562/iS9 cells; endogenous in cells; host or cells: K562/iS9 (doxorubicin-resistant subline of K562)
T1 sequence (P08183 whole entry): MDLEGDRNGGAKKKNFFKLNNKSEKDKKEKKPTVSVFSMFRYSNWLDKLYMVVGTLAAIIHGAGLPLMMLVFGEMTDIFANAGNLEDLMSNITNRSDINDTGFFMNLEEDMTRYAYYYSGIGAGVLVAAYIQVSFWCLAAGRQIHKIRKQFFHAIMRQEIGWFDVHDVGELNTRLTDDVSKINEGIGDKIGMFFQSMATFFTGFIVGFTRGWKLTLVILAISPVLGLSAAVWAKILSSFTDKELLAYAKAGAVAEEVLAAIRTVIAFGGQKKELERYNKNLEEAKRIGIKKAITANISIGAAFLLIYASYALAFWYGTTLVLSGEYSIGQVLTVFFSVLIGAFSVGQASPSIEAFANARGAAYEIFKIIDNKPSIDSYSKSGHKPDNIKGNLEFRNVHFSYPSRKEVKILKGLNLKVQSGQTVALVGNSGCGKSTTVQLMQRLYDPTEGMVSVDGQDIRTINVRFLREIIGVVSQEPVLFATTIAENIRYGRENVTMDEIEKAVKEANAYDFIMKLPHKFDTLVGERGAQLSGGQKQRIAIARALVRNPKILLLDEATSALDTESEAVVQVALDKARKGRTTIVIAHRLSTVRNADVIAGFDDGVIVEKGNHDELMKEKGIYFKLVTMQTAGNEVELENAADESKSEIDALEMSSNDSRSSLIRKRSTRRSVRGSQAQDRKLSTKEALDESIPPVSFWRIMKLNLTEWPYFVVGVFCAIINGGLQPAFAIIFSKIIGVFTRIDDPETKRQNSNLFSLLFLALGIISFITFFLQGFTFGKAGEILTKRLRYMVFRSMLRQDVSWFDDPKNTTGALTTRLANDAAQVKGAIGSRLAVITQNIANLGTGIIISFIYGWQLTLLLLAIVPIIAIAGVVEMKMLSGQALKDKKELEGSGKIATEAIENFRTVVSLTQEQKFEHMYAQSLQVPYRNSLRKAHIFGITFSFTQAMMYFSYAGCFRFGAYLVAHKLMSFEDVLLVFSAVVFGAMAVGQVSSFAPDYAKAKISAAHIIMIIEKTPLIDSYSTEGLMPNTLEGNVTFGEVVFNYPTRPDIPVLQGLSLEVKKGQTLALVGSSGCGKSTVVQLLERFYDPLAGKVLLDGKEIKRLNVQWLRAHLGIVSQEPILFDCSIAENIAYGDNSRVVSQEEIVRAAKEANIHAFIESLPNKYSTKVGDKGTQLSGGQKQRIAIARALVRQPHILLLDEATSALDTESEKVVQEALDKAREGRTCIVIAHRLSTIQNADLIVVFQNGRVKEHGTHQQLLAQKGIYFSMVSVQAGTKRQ
Procedure: We assessed the efflux of the fluorescent dye Rhodamine 123 (Rh123) from cells with a high P-gp content—K562/iS9 cells [31].
The functional activity of P-gp was evaluated by the method described earlier [40]. K562/iS9 cells (3 × 10^6) were incubated for 15 min in a culture medium containing 5 μg/mL of Rh123 (Sigma-Aldrich, St. Louis, MO, USA). After incubation, the cells were washed twice and divided into several fractions. […] The incubation was carried out in the full culture medium at 37 °C for 30 min. […] The cell fluorescence was evaluated using a flow cytometer (Becton Dickinson). The results were analyzed using the CellQuest software.

In the case of `CC(C)C1[N]2C(=O)c3cccc[n+]3[Pd-2]2([Cl])[S+]=P1(c1ccccc1)c1ccccc1` (racemic) [Compound 18], the IC50 [1] is reported as 6.4 ± 1.7 µM, the “Inhibition Zone, B. subtillis (VKM B-501)” value ([2]; 0.25 mM) is reported as 0.5 ± 0.2 mm and the “Inhibition Zone, B. subtillis (VKM B-501)” value ([2]; 2.50 mM) is reported as 0.5 ± 0.2 mm. For the same compound, the “Inhibition Zone, M. luteus (VKM Ac-2230)” value ([3]; 0.25 mM) was 0.5 ± 0.3 mm, the “Inhibition Zone, M. luteus (VKM Ac-2230)” value ([3]; 2.50 mM) was 4.0 ± 0.5 mm and the IC50 [4] was 3000 ± 1200 nM. The IC50 [5] was 23.3 ± 2.7 µM, the IC50 [6] was 4.8 ± 1.2 µM and the “percentage of necrotic cells (upper left), K562/iS9” value [7] was 0.4%. For the same compound, the IC50 [8] was 9.5 ± 1.8 µM, the IC50 [9] was 3.4 ± 0.1 µM and the “Inhibition Zone, G. auringiensis (VKM Y-2927)” value ([10]; 0.25 mM) was 0 mm. The “Inhibition Zone, G. auringiensis (VKM Y-2927)” value ([10]; 2.50 mM) was 0 mm, the IC50 [11] was 14 ± 1.4 µM and the “percentage of necrotic cells (upper left), K562” value [12] was 0.2%. The IC50 [13] was 9.2 ± 1.8 µM, the IC50 [14] was 11.5 ± 1.5 µM and the IC50 [15] was 19.2 ± 1.3 µM.

For `O=C1c2cccc[n+]2[Pd-2]2([Cl])[S+]=P(c3ccccc3)(c3ccccc3)C(c3ccccc3)[N]12` (racemic) [Ia], the IC50 [16] is given as 16 ± 0.5 µM, the IC50 [17] is given as 2400 ± 300 nM and the IC50 [18] is given as 3000 ± 500 nM. For the same compound, the IC50 [19] was 6.2 ± 0.5 µM, the IC50 [20] was 7.4 ± 0.4 µM and the IC50 [21] was 3.2 ± 0.4 µM. For the same compound, the IC50 [22] was 30 ± 2 µM, the IC50 [23] was 4 ± 0.4 µM and the IC50 [24] was 10 ± 2.5 µM. The IC50 [25] was 5.8 ± 1.2 µM, the IC50 [26] was 34 ± 4 µM and the IC50 [27] was 34 ± 4 µM.

With `N#Cc1ccccc1.N#Cc1ccccc1.[Cl][Pd][Cl]` [PdCl2(NCPh)2] the “concentration up to which inactive, hematopoietic cancer cells” value [28] was > 40 µM and the “concentration up to which inactive, solid cancer cells” value [29] was > 60 µM.

For `COc1cc2c(cc1OC)CN(CCc1ccc(NC(=O)c3cccc4c(=O)c5cccc(OC)c5[nH]c34)cc1)CC2` [elacridar], the “effect on Rh123 efflux / interaction with P-gp” value [30] was “almost completely blocks the efflux of Rh123”.
